Source: PMC8076852 (Frontiers in Molecular Biosciences, 2021)

What was measured:
[1] = test system: NCCCNCCCCNCCCN; assay: purified protein; details: pH 8.0; 37.0 °C
[2] = test system: T1, R3C2
T1 construct: gene speG

[3] = test system: T2, R1C1
T2 construct: gene speG

[4] = test system: T3, R1C3
T3 construct: gene speG

[5] = test system: T4, R1C2
T4 construct: gene speG

Molecule | K0.5 [1] [mM] | Km [2] [µM] | Km [3] [µM] | Km [4] [µM] | Km [5] [µM]
(Vibrio cholerae O1 biovar El Tor str. N16961) | 0.222 ± 0.005 |  |  |  | 
NCCCNCCCCNCCCN [spermine] |  | 98 ± 8 | 2530 ± 710 | 244 ± 20 | 364 ± 8
